Laboratory results published in the SangsterLogP compilation.

Test: method code SF, from DOI: 10.1039/p29920001643

| logP | Structure (SMILES) |
| --- | --- |
| 0.8 | CC(=O)c1c(C)no[n+]1[O-] |
| 3.64 | [O-][n+]1onc(-c2ccccc2)c1-c1ccccc1 |
| 1.75 | Cc1no[n+]([O-])c1S(=O)c1ccccc1 (stereo unspecified) |
| 1.76 | Cc1nonc1S(=O)c1ccccc1 (stereo unspecified) |
| 0.23 | Cc1no[n+]([O-])c1C |
| 1.47 | Nc1no[n+]([O-])c1-c1ccccc1 |
| 2.17 | Cc1c(-c2ccccc2)no[n+]1[O-] |
| 2.36 | Cc1nonc1S(=O)(=O)c1ccccc1 |
| 0.9 | Cc1no[n+]([O-])c1Cl |
| 1.41 | Nc1nonc1NC(=O)c1ccccc1 |
| 0.16 | c1cnon1 |
| 1.64 | [O-][n+]1onc(CO)c1-c1ccccc1 |
| 0.69 | COC(=O)c1c(C)no[n+]1[O-] |
| 0.36 | Cc1no[n+]([O-])c1C(N)=O |
| 0.3 | CNC(=O)Nc1nonc1C |
| 0.09 | Cc1nonc1N |
| -0.17 | Cc1c(N)no[n+]1[O-] |
| 2.59 | Cc1nonc1-c1ccccc1 |
| 0.03 | Cc1c(C(N)=O)no[n+]1[O-] |

| logP | Structure (SMILES) |
| --- | --- |
| 2.61 | O=Cc1no[n+]([O-])c1-c1ccccc1 |
| 1.5 | Cc1c(S(=O)c2ccccc2)no[n+]1[O-] (stereo unspecified) |
| -0.23 | CC(=O)Nc1nonc1N |
| 1.69 | c1ccc2nonc2c1 |
| 0.31 | Cc1nonc1C(N)=O |
| 1.29 | Cc1no[n+]([O-])c1C=O |
| 0.94 | COC(=O)c1nonc1C |
| 1.02 | Cc1c(C=O)no[n+]1[O-] |
| 3.83 | c1ccc(-c2nonc2-c2ccccc2)cc1 |
| 0.98 | CC(=O)c1no[n+]([O-])c1C |
| 1.81 | Nc1nonc1-c1ccccc1 |
| 1.71 | CCCc1nonc1C |
| 0.51 | CCNc1nonc1N |
| 2.22 | Cc1no[n+]([O-])c1Cc1ccccc1 |
| 2.7 | [O-][n+]1onc(Cl)c1-c1ccccc1 |
| 2.08 | Cc1c(Cc2ccccc2)no[n+]1[O-] |
| 2.03 | Cc1c(S(=O)(=O)c2ccccc2)no[n+]1[O-] |
| 3.65 | [O-][n+]1onc(Cc2ccccc2)c1Cc1ccccc1 |
| 1.28 | Cc1nsnc1C |

| logP | Structure (SMILES) |
| --- | --- |
| 0.56 | COC(=O)c1no[n+]([O-])c1C |
| 2.21 | Cc1nonc1Cc1ccc([N+](=O)[O-])cc1 |
| 2.16 | Cc1no[n+]([O-])c1-c1ccccc1 |
| -0.32 | Cc1no[n+]([O-])c1N |
| 0.65 | CCS(=O)(=O)c1no[n+]([O-])c1C |
| 1.77 | [O-][n+]1onc(-c2ccccc2)c1CO |
| 1.98 | c1ccc2nsnc2c1 |
| 1.92 | OCc1nonc1-c1ccccc1 |
| 0.71 | Cc1nonc1C |
| 0.56 | CNC(=O)c1nonc1C |
| 2.92 | O=Cc1c(-c2ccccc2)no[n+]1[O-] |
| 2.92 | Cc1nonc1Sc1ccccc1 |
| 0.17 | CC(=O)Nc1nonc1C |
| 2.74 | Cc1no[n+]([O-])c1Sc1ccccc1 |
| 1.42 | Nc1c(-c2ccccc2)no[n+]1[O-] |
| 1.02 | Cc1c(Cl)no[n+]1[O-] |
| 1.18 | CCc1nonc1C |
| 3.2 | Clc1nonc1-c1ccccc1 |
| 0.42 | COC(=O)Nc1nonc1C |

| Structure (SMILES) | logP |
| --- | --- |
| O=[N+]([O-])c1nonc1-c1ccccc1 | 2.63 |
| Nc1nonc1N | -0.49 |
| Cc1nonc1[N+](=O)[O-] | 0.97 |
| [O-][n+]1onc2ccccc21 | 1.43 |
